Laboratory results published in a melting point compilation (Tetko et al.; mined from patent text by program, amines drawn as free bases though some values may be those of a salt).

| melting point [°C] | Compound |
| --- | --- |
| 180 | O=C(O)C(CCN1C(=O)c2ccccc2C1=O)CS(=O)(=O)c1ccc(-c2ccccc2)cc1 (configuration not stated) |
| > 250 | CSc1nc(O)c(C=O)c(O)n1 |
| 232 to 233 | O=C(c1ccccc1)c1ncc2n1CCC2C(=O)O (configuration not stated) |
| 46 to 48 | CCCCCCCCCCc1cc(C=O)on1 |
| 134 to 135 | CNC(=O)N1CC(Oc2cccc(Br)c2)C1 |
| 125 to 126 | CCc1c(Oc2cc(C)cc(C)c2)n(C/C=C/CO)c(=O)[nH]c1=O |
| 207 to 211 | CCOC(=O)c1cn(-c2nc(NC(C)(C)C)c(F)cc2F)c2c(C)c(F)c(F)cc2c1=O |
| 154 | COc1c(C2CCN(CCCCNC(=O)c3ccc(-c4ccc(C#N)cc4)cc3)CC2)ccc2c1CCCC2 |
| 134 to 136 | Cc1cc(-n2ccc(OCCC3CC3)cc2=O)sc1C(=O)NCc1ccccc1 |
| 214 to 215 | COc1ccc(C(=O)c2c(N)sc3c2CCC3)c2ccccc12 |
| > 340 | Nc1c(Nc2cccc(-c3ccncc3)n2)c(=O)c1=O |
| 115 to 120 | CCCc1nc2c(C)cc(-c3nc4ccccc4n3C)cc2n1Cc1ccc(-c2ccccc2NC(=O)C(F)(F)F)cc1 |
| 223 to 226 | Cc1c(-c2ccc(O)cc2)sc(C=O)c1-c1ccc(O)c(F)c1 |
| 142 to 144 | COC(=O)c1c(C(=O)OC)c(-c2ccc(F)c(F)c2)n2c1Cc1ccccc1C2 |
| 177 | O=C(Nc1ccc2cc(CN3CCCC3)cnc2c1)c1ccc(-c2ccc(Cl)cc2)cc1F |
| 164 to 166 | CC(=O)c1c(C)nc2c(OCc3c(Cl)ccc(S(=O)(=O)N4CCC[C@H]4C(=O)NCCCNC(=O)c4ccc(C(N)=NO)cc4)c3Cl)cccn12 |
| 213 to 214 | O=C(CCl)Nc1ccc2c(c1NC(=O)Cc1ccc(F)cc1)C(=O)c1ccccc1C2=O |
| 124 to 125 | CCCCCCCC(=O)N(C)Cc1cccc(-c2ccc(C=CC(=O)O)cc2)c1 |
| 149 to 150 | Cc1ccccc1C(=O)c1ccc(Nc2ccccc2NC(=O)CO)cc1F |
| 139 | CC(O)Cn1cnc2c1c(=O)n(CC1CCCC1)c(=O)n2CC1CCCC1 (configuration not stated) |
| 153 to 155 | CN1CC(CCCl)Oc2ccc([N+](=O)[O-])cc2C1=S (configuration not stated) |
| 202 to 204 | O=Cc1cccc2c1sc1cc3ccccc3cc12 |
| 188 to 191 | O=C(NO)c1cc(Oc2ccc(C(F)(F)F)cc2Cl)ccc1O |

| melting point [°C] | Compound |
| --- | --- |
| 116 to 118 | COC(=O)C1CCC(n2ccn(-c3ccc4c(c3)CCC(C#N)C4)c2=O)CC1 (configuration not stated) |
| 233 to 234 | COc1cc(NC(=O)Nc2c(-c3ccccc3Cl)c3cc(C)c(C)cc3n(C)c2=O)cc(OC)c1OC(C)=O |
| 197 to 199 | Cc1cc(C(=O)NN=C(N)CS(=O)(=O)c2ccccc2)oc1C |
| 156 to 158 | Cc1c(-n2ccnc2)[nH]c2ccccc12 |
| 307 to 313 | Cc1cc(-n2c(C)nc3ccccc32)cc2ccc(=O)[nH]c12 |
| 155 to 159 | Cc1ccc2oc(=O)c(C(=O)Oc3cc(F)ccc3F)cc2c1 |
| 234 to 235 | O=C(Nc1cncc(Cl)n1)C1=C(O)c2ccccc2S(=O)(=O)N1 |
| 73.6 to 73.9 | CCOC(=O)CCCCCOc1ccc(-c2nc(=O)c3ccccc3s2)cn1 |
| 166 to 168 | CC1CCN(c2c(C#N)c3c(c4c2Cc2ccccc2-4)-c2ccccc2C3)CC1 |
| > 300 | O=C1c2ccccc2C(=O)c2cc(Br)c(Br)cc21 |
| 68 to 78 | COc1ccc2c(C(=O)c3ccc(OC4CCCCC4n4ccnc4)cc3)c(-c3ccc(OCCN4CCCC4)cc3)sc2c1 (configuration not stated) |
| 132 to 133 | CCN(CCNC(=O)Nc1cc(Cl)ccc1CCc1cc(C(C)(C)C)c(O)c(C(C)(C)C)c1)Cc1ccccc1 |
| 227 to 229 | CCCC(C)C(=O)N1CC(NC(=O)Nc2cccc(C(=O)O)c2)C(=O)N(CC(=O)c2ccccc2C)c2cc(C)ccc21 (configuration not stated) |
| 58 to 60 | CCc1nc(CC(=O)O)no1 |
| 110 to 111 | COc1cccc(OC)c1C#CC(F)(F)F |
| 334 to 335 | NC(=O)c1nc(-c2cccnc2)nc2c1[nH]c(=O)n2Cc1ccccc1 |
| 243 to 244 | CC1(C)CC(=O)C2=C(C1)NC1=C(C(=O)CC(C)(C)C1)C2c1ccc(Cl)c(OCc2ccccc2)c1 |
| 79 to 81 | CC(C)(C)OC(=O)c1cc(Cl)nc(Cl)c1 |
| > 300 | CC1(C)Nc2ncc(I)cc2NC1=O |
| 250 to 253 | O=C(O)c1cn(Cc2ccccc2)c2cc(N3CCNCC3)c(F)cc2c1=O |
| 127 to 129 | CCOC(=O)CN(C)C(=O)c1ccsc1C(=O)c1ccc(F)cc1 |
| 128 to 130 | CC(C)C[C@H](O)[C@H](O)[C@H](CC1CCCCC1)NC(=O)OC(C)(C)C |
| 244 to 245 | N#Cc1cc(-c2ccc3c(c2)C(C2CC2)(C2CC2)OC(=O)N3)cs1 |

| melting point [°C] | Compound |
| --- | --- |
| 77 to 79 | COc1ccc(C(=C(c2ccc(OC)cc2)C(F)(F)F)c2ccc(OCCN(C)C)cc2)cc1 |
| 191 to 194 | Cc1cccc2ncc(C(=O)NCC(C)(C)C)c(=O)n12 |
| 129 to 130 | Cc1ccc(CC(NCc2ccc(O)cc2)c2ccccc2)cc1 (configuration not stated) |
| 199 to 200 | CCOC(=O)/C=C/c1cccc(C2COc3c(C)c(C)c(NC(=O)CC(C)(C)C)c(C)c32)c1 (configuration not stated) |
| 176 to 178 | Cc1cc(-n2cnn(Cc3ccc(C(F)(F)F)cc3)c2=O)sc1C(=O)NCc1cccnc1 |
| 172 to 173 | CC12CCC3C(CCC4CC(O)CCC43C)C1CCC2=S (configuration not stated) |
| 64 to 68 | CC(COc1ccc(CC2SC(=O)NC2=O)cc1)NCC(O)COc1ccccc1 (configuration not stated) |
| 167 to 171 | O=Cc1ccc2c(c1)S(=O)(=O)c1ccccc1C=C2 |
| 95 | CC(C)c1nn2ccccc2c1C(O)C(C)(C)C (configuration not stated) |
| 153 to 154 | COc1ccc2cccc(C(CO)CNC(=O)C3CC3)c2c1 (configuration not stated) |
| 124 to 127 | CCCCCNC(=O)Nc1ccccc1C(=O)NCCC1CCN(C(c2ccccc2)c2ccccc2)CC1 |
| 241 to 242 | Cc1ccc2[nH]c(=O)cc(CCN3CCN(c4cccc5ccccc45)CC3)c2c1 |
| 148 to 149 | C=C1CCN(CC)c2c(CSc3nc4ccccc4[nH]3)cccc21 |
| 166 to 168 | C=CCCOc1ccc(C[C@H](NC(=O)OC(C)(C)C)C(=O)N[C@@H](CC(C)C)C(=O)N[C@@H](CC=C)C(=O)OC)cc1 |
| 67 to 70 | CC(=O)SCCC1(C)C(=O)N2CCCC(C(=O)OC(C)(C)C)N2C1=O (configuration not stated) |
| 192 | CC1([N+](=O)[O-])C(c2ccco2)CC(=C(C#N)C#N)CC1c1ccco1 (configuration not stated) |
| 249 to 250 | CS(=O)(=O)NCCCC1COCc2nc3c(N)nc4ccccc4c3n21 (configuration not stated) |
| 148 to 150 | CCOC(=O)c1c(-c2ccc(F)cc2)cc(-c2cccc3c2OCO3)nc1C(C)C |
| 134 to 136 | CCNC(=O)NCCCN1C(=Nc2ccc3c(c2)OCO3)CSC1c1ccccc1OC (configuration not stated) |
| 135 to 136 | CSc1cnc(NC(=O)c2cccc(OC(C)=O)c2)s1 |
| 293 to 297 | O=CNc1ccc2[nH]c3cc(-c4ccccc4Cl)c4c(c3c2c1)C(=O)NC4=O |
| 85 to 87 | COC(=O)N(C)c1ccc(OCc2nc3ccccc3s2)cc1 |
| 208 to 212 | N#Cc1c(NC(=O)C2CCCCC2)sc(-c2ccccc2)c1C#N |

| melting point [°C] | Compound |
| --- | --- |
| 107 to 108 | C=CCn1c(C)c(C)c2cnnc(SCc3ccc(Cl)cc3)c21 |
| 138 to 139 | C=C1N(CC)C(=O)OC12CCN(CCC=C(c1ccc(F)cc1)c1ccc(F)cc1)CC2 |
| 175 to 176 | Cc1ccc(S(=O)(=O)N(c2ccc(Cl)cc2C(=O)O)C(C)C)cc1 |
| 125 to 126 | Oc1cccnc1Sc1cccc(Br)c1 |
| 157 to 158 | COC(=O)[C@@H]1Cc2ccccc2N1C(=O)[C@H](CC(=O)O)NC(=O)C(F)(F)F |
| 218 | CC(=O)C1=CCC2C3CCC4CC(O)CCC4(C)C3C(=O)CC12C (configuration not stated) |
| 176 to 178 | Cc1noc(NS(=O)(=O)c2cccc3cccnc23)c1C |
| 169 to 172 | CC(C)c1ccc2c(c1)c(S(=O)(=O)c1ccccc1)c(CC(C)(C)C(=O)O)n2Cc1ccc(Cl)cc1 |
| 80 to 81 | CCN(CC)CC(O)CNC(=O)c1c(OCc2ccccc2)c2ccccc2n1-c1ccccc1 (configuration not stated) |
| 51 | COC(=O)CCOc1ccc(C#N)cc1 |
| 162 to 164 | COCc1cc(-c2nc(-c3cnc(N)c(C)c3)no2)ccc1-c1ccccc1F |
| 245 to 247 | COc1ccc(-c2c(-c3ccc(S(C)(=O)=O)cc3)n(C)n(C)c2=O)cc1 |
| 156 to 158 | NCCNC(=O)Nc1ccc2[nH]ccc2c1 |
| 105 to 106 | C[Si](C)(C)CCCSCCCNC(=O)n1cc(F)c(=O)[nH]c1=O |
| 60 | COc1ccc2nccc(CCC[C@@H]3CCN(CCC(F)c4ccccc4)C[C@@H]3C(=O)O)c2c1 (some centres not stated) |
| 152 to 154 | Cc1cc(=O)[nH]c(SCc2ccccc2N(C)C)n1 |
| 137 to 138 | COCN1NC(=O)N(C)C1c1ccccc1-c1ccc(CBr)cc1 (configuration not stated) |
| > 250 | Clc1ncnc2[nH]nc(-c3ccccc3)c12 |
| 225 to 226 | COC1(c2cc(F)cc(S(=O)(=O)c3ccc4c(c3)CC/C4=N\O)c2)CCOCC1 |
| 136 to 140 | CC(C)(C)c1ccn(-c2ccc(C(=O)c3cccc4c3Nc3ncccc3CN4)c(C(F)(F)F)c2)n1 |
| 226 | COc1ccc(C2CCCCC2)cc1-c1csc(NC(=O)N2CCN(C3CCOCC3)CC2)n1 |
| 203 | O=C1NC(=O)C(c2c[nH]c3cc(F)ccc23)=C1C1=COc2ccccc2O1 |
| 88 | CCCn1nc(SCCCCCC(=O)O)c(C(=O)O)c1Cc1cc2c(cc1Cl)OCO2 |

| Compound | melting point [°C] |
| --- | --- |
| COCCC1=C(C)C(=Cc2ccc(S(N)(=O)=O)cc2)c2ccc(OC)cc21 | 140 |
| Cc1ncc(C(=O)N2CC2C#N)s1 (configuration not stated) | 90 to 92 |
| FC(F)(F)c1ccc2c(C3=CCN(CCCOc4cccc5[nH]ccc45)CC3)c[nH]c2c1 | 190 to 195 |
| COc1ccc(-c2cn([C@H]3CN4CCC3CC4)nn2)cc1 | 122 |
| CN1CC(C(=O)COC(=O)c2cccnc2)CC2c3cccc4[nH]cc(c34)CC21 (configuration not stated) | 172 to 174 |
